We go through six compounds from ChEMBL document CHEMBL1130982, “Diversity of C-linked neoglycopeptides for the exploration of subsite-assisted carbohydrate binding interactions” (Bioorg Med Chem Lett, 1998).

In general, IC50 refers to the concentration needed to halve the response being measured.

SMILES strings stand for the structures.

The assay in a line: Inhibitory activity against binding of horseradish peroxidase labelled Maclura pomifera, isolated from the seeds of osage orange tree to poly (acrylamide-co-allyl alpha-Galactopyranoside.

For `CCN(CC)C(=O)CNC(=O)[C@H](CCCCNC(=O)CN(CCC1OC(CO)C(O)C(O)C1O)C(=O)CC1OC(CO)C(O)C(O)C1O)NC(C)=O` (stereo partly specified), the 50% inhibitory concentration (IC50) stood at 4310 µM.

As to `CC(=O)N[C@@H](CCCCN(CCC1OC(CO)C(O)C(O)C1O)CCC1OC(CO)C(O)C(O)C1O)C(=O)NCC(N)=O` (stereo partly specified), the half-maximal inhibitory concentration (IC50) turned out to be 1480 µM. Against the preceding compound, the IC50 is about 2.9-fold lower.

On to `CC(=O)N[C@@H](CCCCNC(=O)c1cc(NC(=O)CNC(=O)[C@H](C)NC(=O)C[C@H]2O[C@H](CO)[C@H](O)[C@H](O)[C@H]2O)cc(NC(=O)CNC(=O)[C@@H](C)NC(=O)C[C@H]2O[C@H](CO)[C@H](O)[C@H](O)[C@H]2O)c1)C(=O)NCC(=O)NCc1ccccc1`, for which the IC50 stood at 2840 µM.

`CC(=O)N[C@@H](CCCCNC(=O)CC1OC(CO)C(O)C(O)C1O)C(=O)NCC(N)=O` (stereo partly specified) returned an IC50 of 4180 µM.

`CCN(CC)C(=O)CC1OC(CO)C(O)C(O)C1O` (stereo unspecified) displayed an IC50 of 2570 µM.

On to `CC(=O)N[C@@H](CCCCNC(=O)c1cc(NC(=O)CNC(=O)[C@H]2CCCN2C(=O)C[C@@H]2O[C@@H](CO)[C@H](O)[C@H](O)[C@@H]2O)cc(NC(=O)CNC(=O)[C@@H]2CCCN2C(=O)C[C@H]2O[C@@H](CO)[C@H](O)[C@H](O)[C@@H]2O)c1)C(=O)NCC(=O)NCc1ccccc1`, for which the 50% inhibitory concentration (IC50) worked out at 1500 µM.
